Measurements as given in paper PMC7151078, “A Novel NMDA Receptor Antagonist Protects against Cognitive Decline Presented by Senescent Mice” (Pharmaceutics, 2020).

Assays:
SAMR1 and SAMP8 mice [1] = test: Object location test (OLT); format: in vivo, mouse; conditions: both treated mice groups (SR1 and SP8), 5 mg/kg/day
Description: Male SAMR1 and SAMP8 mice (n = 41) with 20-weeks-old were used to carry out cognitive and molecular analysis. The animals were randomly divided into four groups: SAMR1 control (SR1 Ct) group (n = 11), SAMP8 control (SP8 Ct) group (n = 8), SAMR1 treated with RL-208 (SR1 RL-208 (5 mg/Kg)) group (n = 10) and SAMP8 treated with RL-208 (SP8 RL-208 (5 mg/Kg)) group (n = 12). Animals had free access to food and water, under standard temperature conditions (22±2 °C) and 12h:12h light-dark cycles (300 lux/0 lux). RL-208, (3,4,8,9-tetramethyltetracyclo[4.4.0.0^3,9.0^4,8]dec-1-yl)-methylamine hydrochloride, (5 mg/kg/day) was administered through drinking water for four weeks before starting the cognitive test. RL-208 was administered up to euthanasia (Figure 1A). Water consumption was controlled each week for each cage and strain. Afterwards, RL-208 concentration was adjusted accordingly to reach the optimal dose for each cage. […] Trials were recorded using a camera mounted above the open field area, and the total exploration time was determined by scoring the amount of time (seconds) spent sniffing the object in the new location (TN) and the object in the old location (TO). In order to evaluate the cognitive performance, the DI was calculated, which is defined as (TN-TO)/(TN+TO).

SAMR1 and SAMP8 mice [2] = test: Hippocampal protein levels by Western blotting; format: in vivo, mouse; conditions: hippocampus
Description: Male SAMR1 and SAMP8 mice (n = 41) with 20-weeks-old were used to carry out cognitive and molecular analysis. The animals were randomly divided into four groups: SAMR1 control (SR1 Ct) group (n = 11), SAMP8 control (SP8 Ct) group (n = 8), SAMR1 treated with RL-208 (SR1 RL-208 (5 mg/Kg)) group (n = 10) and SAMP8 treated with RL-208 (SP8 RL-208 (5 mg/Kg)) group (n = 12). Animals had free access to food and water, under standard temperature conditions (22±2 °C) and 12h:12h light-dark cycles (300 lux/0 lux). RL-208, (3,4,8,9-tetramethyltetracyclo[4.4.0.0^3,9.0^4,8]dec-1-yl)-methylamine hydrochloride, (5 mg/kg/day) was administered through drinking water for four weeks before starting the cognitive test. RL-208 was administered up to euthanasia (Figure 1A). Water consumption was controlled each week for each cage and strain. Afterwards, RL-208 concentration was adjusted accordingly to reach the optimal dose for each cage. Three days after the behavioural and cognitive tests, mice were euthanized by cervical dislocation. Brains were immediately removed from the skull. The hippocampus and cortex were then isolated and frozen in powdered dry ice. They were maintained at −80 °C for further use. Tissue samples were homogenized in lysis buffer containing phosphatase and protease inhibitors (Cocktail II, Sigma). Total protein levels were obtained, and protein concentration was determined by the method of Bradford. For Western blotting (WB), aliquots of 15 μg of hippocampal protein extraction per sample were used. Protein samples were separated by Sodium dodecyl sulphate-Polyacrylamide gel electrophoresis (SDS-PAGE) (8–20%) and transferred onto Polyvinylidene difluoride (PVDF) membranes (Millipore). Afterwards, membranes were blocked in 5% non-fat milk in Tris-buffered saline (TBS) solution containing 0.1% Tween 20 TBS (TBS-T) for 1 hour at room temperature, followed by overnight incubation at a 4 °C with the primary antibodies listed in Table S1. Then, membranes were washed and incubated with secondary antibodies for 1 hour at room temperature. Immunoreactive proteins were viewed with the chemiluminescence-based detection kit, following the manufacturer’s protocol (ECL Kit, Millipore), and digital images were acquired using ChemiDoc XRS+ System (BioRad). Semi-quantitative analyses were performed using ImageLab software (BioRad), and results were expressed in arbitrary units (AU), considering control protein levels as 100%. Protein loading was routinely monitored by immunodetection of Glyceraldehyde-3-phosphate dehydrogenase (GAPDH).

Q: How did the “OLT spatial memory (DI)” value (SAMR1 and SAMP8 mice [1]) turn out when `CC12CC3CC1(C)C1(C)CC3(CN)CC21C.Cl` [RL-208, (3,4,8,9-tetramethyltetracyclo [4.4.0.0^3,9.0^4,8]dec-1-yl)methylamine hydrochloride] was run?
A: Its value is “significant higher DI values”.

Q: What about the PSD95 protein levels (SAMR1 and SAMP8 mice [2]; RL-208 treated mice) of the same molecule?
A: Its PSD95 protein levels is “augmented but did not reach significance in SP8 mice”.

Q: What about the “Synaptophysin (SYN) protein levels” value (SAMR1 and SAMP8 mice [2]; RL-208 treated mice) of the same molecule?
A: The value was “significant increase”.

Q: What about the ADAM10 protein levels (SAMR1 and SAMP8 mice [2]; SAMP8) of the same molecule?
A: The ADAM10 protein levels was “prevented the loss”.

Q: What about the SNAP25 protein levels (SAMR1 and SAMP8 mice [2]; SP8 RL-208) of the same molecule?
A: Its SNAP25 protein levels is “significant-high”.

Q: And the “CDK5 activation (p-CDK5/CDK5 ratio)” value (SAMR1 and SAMP8 mice [2]; SP8 RL-208 vs control group)?
A: Its value is “significantly reduced”.

Q: And the p25/p35 ratio (SAMR1 and SAMP8 mice [2]; SP8 RL-208 vs control group)?
A: Its p25/p35 ratio is “significantly reduced”.

Q: And the GPX1 protein levels (SAMR1 and SAMP8 mice [2]; SP8 mice, not in SR1)?
A: The GPX1 protein levels was “increased, in a significant way”.

Q: And the SOD1 protein levels (SAMR1 and SAMP8 mice [2]; SP8 mice, not in SR1)?
A: Its SOD1 protein levels is “increased, in a significant way”.

Q: What about the “120BPD (Spectrin breakdown product)” value (SAMR1 and SAMP8 mice [2]; SP8 strain, not in SR1) of the same molecule?
A: Its value is “reduced”.

Q: And the Calpain-1 protein levels (SAMR1 and SAMP8 mice [2]; SP8 strain, not in SR1)?
A: The Calpain-1 protein levels was “reduced”.

Q: And the Caspase-3 protein levels (SAMR1 and SAMP8 mice [2]; SP8 strain, not in SR1)?
A: The Caspase-3 protein levels was “reduced”.

Q: And the TrkB-FL protein levels (SAMR1 and SAMP8 mice [2]; both SR1 and SP8)?
A: Its TrkB-FL protein levels is “increased significantly”.

Q: And the “p-NMDAR (Tyr1472) protein levels” value (SAMR1 and SAMP8 mice [2]; both strains)?
A: The value was “increased in a significant way”.

Q: And the “Tau phosphorylation (Ser396)” value (SAMR1 and SAMP8 mice [2]; both treated mice groups)?
A: The value was “significant reduction”.

Q: What about the NMDAR2A protein levels (SAMR1 and SAMP8 mice [2]; neither in SR1 nor in SP8) of the same molecule?
A: Its NMDAR2A protein levels is “did not produce significant differences”.

Q: What about the TrkB-ICD protein levels (SAMR1 and SAMP8 mice [2]; treated mice) of the same molecule?
A: Its TrkB-ICD protein levels is “reduced”.
